Data on 18 molecules can be found in patent publication US7074789B2, “Kinase inhibitors” (Amgen Inc., priority 1999, dated 2006).

What all share (assay type): biochemical
One experiment concerns the target T1, Itk (Homo sapiens, UniProt Q08881).
T1 construct: Kinases are expressed as either kinase domains or full length constructs; made in house
T1 sequence (Q08881 1-620): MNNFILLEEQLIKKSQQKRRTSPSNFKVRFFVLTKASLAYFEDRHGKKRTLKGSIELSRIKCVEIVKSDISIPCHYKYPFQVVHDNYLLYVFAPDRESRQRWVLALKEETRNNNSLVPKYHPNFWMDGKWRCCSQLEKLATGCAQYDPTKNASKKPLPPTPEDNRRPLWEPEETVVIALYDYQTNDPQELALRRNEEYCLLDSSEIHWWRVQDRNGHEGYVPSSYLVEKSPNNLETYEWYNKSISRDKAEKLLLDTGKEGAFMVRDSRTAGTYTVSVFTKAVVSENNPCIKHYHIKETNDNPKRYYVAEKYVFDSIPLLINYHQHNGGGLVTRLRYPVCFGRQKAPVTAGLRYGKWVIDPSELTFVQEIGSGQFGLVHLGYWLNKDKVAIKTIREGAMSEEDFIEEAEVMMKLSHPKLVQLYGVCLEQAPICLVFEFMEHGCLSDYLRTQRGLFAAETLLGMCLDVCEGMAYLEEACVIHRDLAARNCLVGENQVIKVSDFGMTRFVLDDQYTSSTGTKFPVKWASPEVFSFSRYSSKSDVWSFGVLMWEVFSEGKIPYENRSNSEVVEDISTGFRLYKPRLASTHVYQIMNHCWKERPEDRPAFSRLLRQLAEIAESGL
In words: Kinase inhibition assay (33P transfer), Itk. As to conditions: Table 3; read-out: Itk-1. In outline: (§1)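 Recombinant kinase domains or full-length GST- or His-tagged constructs, from E. coli or baculovirus/High Five cells, sometimes with regulatory polypeptides. Transfer of 33P from ATP to plate-bound poly(Glu,Tyr) 4:1 or poly(Arg,Ser) 3:1 counted by liquid scintillation after phosphoric acid wash; IC50 is the concentration halving incorporation.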

For another experiment, the target named is T2, c-Met (Homo sapiens, UniProt P08581).
T2 construct: Kinases are expressed as either kinase domains or full length constructs; made in house
T2 sequence (P08581 25-1390): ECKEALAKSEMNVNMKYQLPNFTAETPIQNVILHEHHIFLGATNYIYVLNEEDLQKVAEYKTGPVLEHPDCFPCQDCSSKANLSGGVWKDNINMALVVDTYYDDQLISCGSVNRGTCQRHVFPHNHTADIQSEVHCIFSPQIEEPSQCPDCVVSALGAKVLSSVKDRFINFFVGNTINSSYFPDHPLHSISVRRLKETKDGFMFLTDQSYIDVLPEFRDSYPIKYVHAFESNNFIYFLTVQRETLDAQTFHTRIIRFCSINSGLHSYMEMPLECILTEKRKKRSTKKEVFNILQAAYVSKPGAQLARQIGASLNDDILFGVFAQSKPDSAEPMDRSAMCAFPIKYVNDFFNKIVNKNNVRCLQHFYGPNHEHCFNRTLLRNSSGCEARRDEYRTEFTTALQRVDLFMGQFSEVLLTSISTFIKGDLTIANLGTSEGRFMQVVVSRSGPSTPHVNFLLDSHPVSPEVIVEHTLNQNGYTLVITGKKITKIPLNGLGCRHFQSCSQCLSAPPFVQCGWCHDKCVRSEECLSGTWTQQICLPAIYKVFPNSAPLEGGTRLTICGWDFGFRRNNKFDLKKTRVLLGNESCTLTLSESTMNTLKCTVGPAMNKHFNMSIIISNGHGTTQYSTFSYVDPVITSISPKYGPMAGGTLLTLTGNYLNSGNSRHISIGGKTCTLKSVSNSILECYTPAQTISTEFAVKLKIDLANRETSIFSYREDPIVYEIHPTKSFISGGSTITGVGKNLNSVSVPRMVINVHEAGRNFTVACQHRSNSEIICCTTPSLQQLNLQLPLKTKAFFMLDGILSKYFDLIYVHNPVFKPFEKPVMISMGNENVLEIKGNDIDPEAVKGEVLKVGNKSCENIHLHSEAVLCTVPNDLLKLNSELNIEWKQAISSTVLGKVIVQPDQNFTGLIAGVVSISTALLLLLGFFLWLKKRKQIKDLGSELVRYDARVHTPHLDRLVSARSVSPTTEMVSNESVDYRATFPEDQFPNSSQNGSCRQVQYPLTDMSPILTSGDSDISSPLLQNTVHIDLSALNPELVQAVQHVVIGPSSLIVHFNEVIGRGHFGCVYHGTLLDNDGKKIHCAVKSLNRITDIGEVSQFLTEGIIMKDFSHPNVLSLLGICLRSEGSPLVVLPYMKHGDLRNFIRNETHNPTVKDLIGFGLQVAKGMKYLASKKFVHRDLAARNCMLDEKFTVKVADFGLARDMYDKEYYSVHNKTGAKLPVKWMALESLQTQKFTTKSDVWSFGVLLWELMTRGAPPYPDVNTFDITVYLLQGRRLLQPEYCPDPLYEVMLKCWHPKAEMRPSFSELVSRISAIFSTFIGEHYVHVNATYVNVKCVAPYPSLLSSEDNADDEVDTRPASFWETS
The experiment can be described thus: Kinase inhibition assay (33P transfer), c-Met. The conditions noted are these: Table 2, kinase inhibition class; read-out: Met-1. In outline: as §1

A further experiment addresses T3, Zap-70 (Homo sapiens, UniProt P43403).
T3 construct: Kinases are expressed as either kinase domains or full length constructs; made in house
T3 sequence (P43403 1-619): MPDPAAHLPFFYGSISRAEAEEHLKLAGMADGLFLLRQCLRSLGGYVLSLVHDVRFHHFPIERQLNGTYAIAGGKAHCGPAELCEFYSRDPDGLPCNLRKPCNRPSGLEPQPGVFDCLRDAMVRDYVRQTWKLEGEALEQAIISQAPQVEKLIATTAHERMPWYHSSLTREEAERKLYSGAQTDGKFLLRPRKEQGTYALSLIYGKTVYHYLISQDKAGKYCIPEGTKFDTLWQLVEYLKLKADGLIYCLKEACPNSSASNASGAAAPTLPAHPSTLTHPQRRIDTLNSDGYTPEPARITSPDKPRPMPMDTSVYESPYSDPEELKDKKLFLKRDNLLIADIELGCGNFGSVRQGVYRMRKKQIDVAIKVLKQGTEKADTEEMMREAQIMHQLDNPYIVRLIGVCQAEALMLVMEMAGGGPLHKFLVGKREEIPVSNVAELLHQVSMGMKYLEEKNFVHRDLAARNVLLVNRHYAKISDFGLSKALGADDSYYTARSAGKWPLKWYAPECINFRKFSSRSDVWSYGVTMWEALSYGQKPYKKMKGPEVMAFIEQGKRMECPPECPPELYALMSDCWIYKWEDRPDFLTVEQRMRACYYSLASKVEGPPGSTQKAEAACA
In words: Kinase inhibition assay (33P transfer), Zap-70. The conditions noted are these: Table 3; read-out: Zap-1. The procedure, abridged: (§2)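 Steps: express kinase as GST or polyHistidine fusion in E. coli or High Five cells; optionally co-express or mix with regulatory polypeptides; incubate with 33P-ATP and plate-attached poly(Glu,Tyr) 4:1 or poly(Arg,Ser) 3:1; wash with 0.5% phosphoric acid; count by liquid scintillation.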

In another experiment the target is T4, IGFR-1 (Homo sapiens, UniProt P08069).
T4 construct: Kinases are expressed as either kinase domains or full length constructs; made in house
In words: Kinase inhibition assay (33P transfer), IGFR-1. The conditions noted are these: Table 2, kinase inhibition class.

For a further experiment, the target named is T5, AKT (Homo sapiens, UniProt Q9Y243).
T5 construct: Kinases are expressed as either kinase domains or full length constructs; made in house
T5 sequence (Q9Y243 whole entry, the tested form may be a part): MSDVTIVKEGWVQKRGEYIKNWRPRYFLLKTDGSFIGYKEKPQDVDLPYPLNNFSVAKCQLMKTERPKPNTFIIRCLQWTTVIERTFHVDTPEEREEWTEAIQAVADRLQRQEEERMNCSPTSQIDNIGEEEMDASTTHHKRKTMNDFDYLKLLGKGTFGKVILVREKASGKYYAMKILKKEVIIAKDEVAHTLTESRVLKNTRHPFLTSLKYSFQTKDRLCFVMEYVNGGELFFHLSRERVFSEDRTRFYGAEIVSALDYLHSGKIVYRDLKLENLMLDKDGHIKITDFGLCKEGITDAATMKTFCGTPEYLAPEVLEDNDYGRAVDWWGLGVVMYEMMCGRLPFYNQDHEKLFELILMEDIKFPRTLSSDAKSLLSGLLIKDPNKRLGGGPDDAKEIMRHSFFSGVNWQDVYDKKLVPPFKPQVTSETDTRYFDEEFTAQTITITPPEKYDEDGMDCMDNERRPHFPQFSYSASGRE
The experiment can be described thus: Kinase inhibition assay (33P transfer), AKT. As to conditions: Table 2, kinase inhibition class; read-out: AKT3-1. The procedure, abridged: as §2

Another experiment concerns the target T6, EGFR (Homo sapiens, UniProt P00533).
T6 construct: Kinases are expressed as either kinase domains or full length constructs; made in house
The experiment can be described thus: Kinase inhibition assay (33P transfer), EGFR. As to conditions: Table 2, kinase inhibition class; read-out: EGFR-1. The procedure, abridged:
as §1

In another experiment the target is T7, Kdr (Homo sapiens, UniProt P35968).
T7 construct: Kinases are expressed as either kinase domains or full length constructs; made in house
T7 sequence (P35968 20-1356, species assumed): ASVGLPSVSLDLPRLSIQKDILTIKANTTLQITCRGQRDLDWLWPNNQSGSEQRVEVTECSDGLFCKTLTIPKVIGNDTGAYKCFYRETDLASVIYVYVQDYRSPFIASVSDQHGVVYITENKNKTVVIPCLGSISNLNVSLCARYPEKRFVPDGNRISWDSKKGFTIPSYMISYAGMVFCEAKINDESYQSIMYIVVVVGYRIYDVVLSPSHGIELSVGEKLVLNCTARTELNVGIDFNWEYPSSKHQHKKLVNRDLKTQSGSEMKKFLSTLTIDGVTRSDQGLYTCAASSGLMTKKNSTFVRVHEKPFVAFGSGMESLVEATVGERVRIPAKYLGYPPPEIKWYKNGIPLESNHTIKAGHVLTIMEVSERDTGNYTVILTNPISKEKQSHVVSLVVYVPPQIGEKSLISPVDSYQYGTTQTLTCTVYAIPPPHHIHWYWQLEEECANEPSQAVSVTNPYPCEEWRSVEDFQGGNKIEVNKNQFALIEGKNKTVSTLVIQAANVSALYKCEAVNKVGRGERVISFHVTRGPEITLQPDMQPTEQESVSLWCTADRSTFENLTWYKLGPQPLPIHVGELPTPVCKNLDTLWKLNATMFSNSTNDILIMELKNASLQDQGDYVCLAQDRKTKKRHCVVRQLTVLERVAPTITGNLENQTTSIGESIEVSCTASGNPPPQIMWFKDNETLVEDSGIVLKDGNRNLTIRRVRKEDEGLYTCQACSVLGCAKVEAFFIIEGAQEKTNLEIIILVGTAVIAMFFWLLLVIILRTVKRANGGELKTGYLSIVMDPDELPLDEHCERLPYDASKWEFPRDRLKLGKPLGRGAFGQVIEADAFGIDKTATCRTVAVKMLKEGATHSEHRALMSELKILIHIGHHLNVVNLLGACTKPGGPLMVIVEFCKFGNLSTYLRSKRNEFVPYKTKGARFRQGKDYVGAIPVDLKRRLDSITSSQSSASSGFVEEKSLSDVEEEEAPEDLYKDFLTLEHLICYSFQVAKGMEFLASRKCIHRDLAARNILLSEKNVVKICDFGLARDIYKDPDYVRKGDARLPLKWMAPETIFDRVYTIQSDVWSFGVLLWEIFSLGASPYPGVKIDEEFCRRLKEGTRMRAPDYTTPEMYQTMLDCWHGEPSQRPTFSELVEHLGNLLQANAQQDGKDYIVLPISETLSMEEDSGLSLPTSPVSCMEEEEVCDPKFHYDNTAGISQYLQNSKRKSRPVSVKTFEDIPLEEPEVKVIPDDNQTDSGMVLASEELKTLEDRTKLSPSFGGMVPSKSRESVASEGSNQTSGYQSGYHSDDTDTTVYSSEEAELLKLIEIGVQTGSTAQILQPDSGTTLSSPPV
The experiment can be described thus: Kinase inhibition assay (33P transfer), Kdr. The conditions noted are these: Table 3; read-out: KDR-1. In outline: as §2

The next experiment addresses T8, Lck (Homo sapiens, UniProt P06239).
T8 construct: Kinases are expressed as either kinase domains or full length constructs; made in house
The experiment can be described thus: Kinase inhibition assay (33P transfer), Lck. The conditions noted are these: Table 3; read-out: Lck-1. In outline:
as §2

Some results are limits rather than exact numbers.

T6 sequence (P00533 25-1210, species assumed): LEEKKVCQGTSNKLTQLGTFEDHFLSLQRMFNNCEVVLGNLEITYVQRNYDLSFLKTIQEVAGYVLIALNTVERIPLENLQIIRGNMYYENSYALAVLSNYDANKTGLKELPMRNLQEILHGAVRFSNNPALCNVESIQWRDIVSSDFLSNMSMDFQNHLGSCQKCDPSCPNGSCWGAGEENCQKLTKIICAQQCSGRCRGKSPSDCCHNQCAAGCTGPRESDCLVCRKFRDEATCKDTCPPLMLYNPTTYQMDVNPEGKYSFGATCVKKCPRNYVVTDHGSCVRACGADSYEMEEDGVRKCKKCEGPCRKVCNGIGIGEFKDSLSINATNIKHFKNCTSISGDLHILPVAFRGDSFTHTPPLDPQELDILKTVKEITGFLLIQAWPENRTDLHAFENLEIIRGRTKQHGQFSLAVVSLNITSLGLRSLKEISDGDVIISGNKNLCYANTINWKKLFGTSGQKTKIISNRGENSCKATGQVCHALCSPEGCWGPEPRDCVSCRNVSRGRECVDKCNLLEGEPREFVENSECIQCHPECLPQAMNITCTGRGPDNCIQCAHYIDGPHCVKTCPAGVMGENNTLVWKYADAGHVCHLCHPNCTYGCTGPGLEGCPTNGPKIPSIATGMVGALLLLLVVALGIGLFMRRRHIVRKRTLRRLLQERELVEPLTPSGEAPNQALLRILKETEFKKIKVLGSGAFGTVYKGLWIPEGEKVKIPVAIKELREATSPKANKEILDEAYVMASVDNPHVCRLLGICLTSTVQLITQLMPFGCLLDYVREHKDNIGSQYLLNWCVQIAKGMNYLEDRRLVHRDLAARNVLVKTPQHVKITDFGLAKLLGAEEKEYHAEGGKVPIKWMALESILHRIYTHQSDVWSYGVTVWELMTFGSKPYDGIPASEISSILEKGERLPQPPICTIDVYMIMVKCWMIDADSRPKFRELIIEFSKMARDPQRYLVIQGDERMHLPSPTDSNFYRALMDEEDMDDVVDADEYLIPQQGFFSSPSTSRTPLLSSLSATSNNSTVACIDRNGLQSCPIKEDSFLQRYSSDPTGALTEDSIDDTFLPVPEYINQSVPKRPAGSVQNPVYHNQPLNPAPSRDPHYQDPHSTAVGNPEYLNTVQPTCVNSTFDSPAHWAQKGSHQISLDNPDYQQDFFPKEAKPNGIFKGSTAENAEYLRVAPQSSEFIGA
T8 sequence (P06239 whole entry, species assumed, the tested form may be a part): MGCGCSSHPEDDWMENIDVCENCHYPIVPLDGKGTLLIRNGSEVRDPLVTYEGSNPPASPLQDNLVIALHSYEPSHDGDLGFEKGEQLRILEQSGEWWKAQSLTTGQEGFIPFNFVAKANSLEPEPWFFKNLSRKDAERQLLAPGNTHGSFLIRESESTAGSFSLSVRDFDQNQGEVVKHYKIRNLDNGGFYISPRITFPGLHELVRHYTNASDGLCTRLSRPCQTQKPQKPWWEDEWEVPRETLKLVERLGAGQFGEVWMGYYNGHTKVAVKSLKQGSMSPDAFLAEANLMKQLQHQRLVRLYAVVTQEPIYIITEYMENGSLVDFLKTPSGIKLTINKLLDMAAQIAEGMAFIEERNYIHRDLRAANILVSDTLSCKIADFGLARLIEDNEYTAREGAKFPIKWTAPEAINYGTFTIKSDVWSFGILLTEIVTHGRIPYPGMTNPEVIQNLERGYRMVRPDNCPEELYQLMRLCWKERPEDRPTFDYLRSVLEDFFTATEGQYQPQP

For the molecule `NC(=O)c1ccc(Nc2ncnc(-c3ccccc3)n2)cc1` [Compound 1028], the IC50 on Itk, on c-Met, on Zap-70, at IGFR-1, on AKT and on EGFR was over 15.4 µM throughout. Further, the IC50 at Kdr and at Lck was over 15.4 µM each time.
With `O=[N+]([O-])c1cccc(Nc2ncnc(-c3cccs3)n2)c1` [Compound 352], the IC50 on Itk, on c-Met, on Zap-70, at IGFR-1, at AKT and on EGFR was over 15 µM throughout. Further, the IC50 at Kdr and on Lck was over 15 µM throughout.
In the case of `COc1cccc(Nc2ncnc(-c3cccs3)n2)n1` [Compound 362], the IC50 at Itk, on c-Met, at Zap-70, against IGFR-1, at AKT and at EGFR was over 15.8 µM throughout. Also, the IC50 at Kdr and on Lck was over 15.8 µM in each case.
Take `COc1ccc(Nc2ncnc(-c3cccs3)n2)cc1OC` [Compound 357]: the IC50 on Itk, at c-Met, on Zap-70, against IGFR-1, on AKT and on EGFR was over 14.3 µM throughout. Besides, the IC50 at Kdr and on Lck was over 14.3 µM each time.
Take `COc1cc(Nc2ncnc(-n3cc(OC(C)=O)c4ccccc43)n2)cc(OC)c1OC` [Compound 205]: the IC50 at Itk, on c-Met, on Zap-70, against IGFR-1, at AKT and at EGFR was over 10.3 µM in each case. The IC50 at Kdr was 5.51 to 8.04 µM; on Lck, over 10.3 µM.
With `NC(=O)c1ccc(Nc2ncnc(-c3cccs3)n2)cc1` [Compound 354], the IC50 on Itk, at c-Met, on Zap-70, against IGFR-1, at AKT and on EGFR was over 15.1 µM each time. Besides, the IC50 at Kdr and on Lck was over 15.1 µM throughout.
In the case of `Fc1ccccc1Nc1ncnc(-c2ccccc2)n1` [Compound 20], the IC50 at Itk, at c-Met, on Zap-70, on IGFR-1, on AKT and on EGFR was over 16.9 µM each time. Further, the IC50 on Kdr and at Lck was over 16.9 µM each time.
With `CC(C)(C)OC(=O)Nc1ccc(Nc2ncnc(Nc3ccc(OCc4ccccc4)cc3)n2)cc1` [Compound 162], the IC50 at Itk was over 9.29 µM; at c-Met it was over 9.29 µM; on Zap-70, over 9.29 µM; on IGFR-1 it was over 9.29 µM; on AKT, 7.22 to 9.29 µM; at EGFR, over 9.29 µM. For the same molecule, the IC50 is 4.95 to 7.22 µM on Kdr and over 9.29 µM on Lck.
In the case of `Clc1ncnc(Nc2ccc(OCc3ccccc3)cc2)n1` [Compound 153], the IC50 at Itk, on c-Met, on Zap-70, against IGFR-1, at AKT and at EGFR was over 14.4 µM each time. Also, the IC50 at Kdr was 11.2 to 14.4 µM; at Lck it was over 14.4 µM.
For the molecule `Nc1nc2ccccc2n1-c1ncnc(Cl)n1` [Compound 1029], the IC50 at Itk is over 18.2 µM; at c-Met it was over 18.2 µM; at Zap-70, 9.73 to 14.2 µM; on IGFR-1, over 18.2 µM; at AKT it was over 18.2 µM; at EGFR it was over 18.2 µM. Moreover, the IC50 on Kdr is 14.2 to 18.2 µM; at Lck, over 18.2 µM.
For the molecule `OCCCNc1ncnc(-c2ccccc2)n1` [Compound 971], the IC50 on Itk, at c-Met, on Zap-70, on IGFR-1, on AKT and on EGFR was over 19.5 µM throughout. In addition, the IC50 on Kdr and at Lck was over 19.5 µM each time.
In the case of `COc1cc(Nc2ncnc(-c3cccnc3)n2)cc(OC)c1OC` [Compound 219], the IC50 on Itk, on c-Met, on Zap-70, against IGFR-1, at AKT and at EGFR was over 13.3 µM throughout. Moreover, the IC50 at Kdr was 1.18 to 7.07 µM; on Lck, over 13.3 µM.
Turning to `COc1cc(Nc2ncnc(-c3cccs3)n2)cc(OC)c1OC` [Compound 217], the IC50 on Itk was over 13.1 µM; at c-Met it was 10.2 to 13.1 µM; on Zap-70, over 13.1 µM; on IGFR-1, over 13.1 µM; at AKT, over 13.1 µM; at EGFR, over 13.1 µM. Further, the figures for the IC50 on Kdr and at Lck were 6.97 to 10.2 µM and 1.16 to 6.97 µM, respectively.
Consider `c1csc(-c2ncnc(Nc3ccc(N4CCOCC4)cc3)n2)c1` [Compound 349], for which the IC50 at Itk is over 13.3 µM; on c-Met, 10.3 to 13.3 µM; at Zap-70 it was over 13.3 µM; against IGFR-1 it was over 13.3 µM; on AKT, 10.3 to 13.3 µM; on EGFR it was over 13.3 µM. For the same molecule, the IC50 at Kdr lay within 10.3 to 13.3 µM; on Lck, 1.18 to 7.07 µM.
For `COc1cc(Nc2ncnc(-c3ccncc3)n2)cc(OC)c1OC` [Compound 42], the IC50 on Itk, at c-Met, at Zap-70, against IGFR-1, on AKT and on EGFR was over 13.3 µM in each case. The IC50 on Kdr and on Lck was 1.18 to 7.07 µM throughout.
With `c1csc(-c2ncnc(Nc3ccncc3)n2)c1` [Compound 363], the IC50 at Itk, on c-Met, at Zap-70, against IGFR-1, on AKT and at EGFR was over 17.6 µM each time. Besides, the IC50 on Kdr and on Lck was over 17.6 µM throughout.
Take `COc1cc(Nc2ncnc(-n3ccc4cccnc43)n2)cc(OC)c1OC` [Compound 327]: the IC50 was 1.06 to 6.34 µM on Itk; over 11.9 µM on c-Met; over 11.9 µM at Zap-70; 6.34 to 9.25 µM at IGFR-1; over 11.9 µM on AKT; over 11.9 µM at EGFR. For the same molecule, the IC50 at Kdr is over 11.9 µM; on Lck, 1.06 to 6.34 µM.
In the case of `FC(F)C(F)(F)Oc1cccc(Nc2ncnc(-c3cccs3)n2)c1` [Compound 350], the IC50 at Itk, at c-Met, on Zap-70, at IGFR-1, at AKT and at EGFR was over 12.2 µM throughout. In addition, the IC50 at Kdr and on Lck was over 12.2 µM in each case.
